Results from patent US20260285850A1, “SUBSTITUTED OXAZOLIDINONES AND IMIDAZOLINONES AS HERBICIDES” (FMC CORPORATION, priority 2023, published 2026).

How the values were obtained:
Type in all cases: in vivo
[1] = tested on: barnyardgrass (Echinochloa crus-galli); assay: Test A preemergence soil spray, visual injury rating 0-100; conditions: 10 days
Procedure, shortened: (§1)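 Preemergence directed soil spray or postemergence spray (2-10 cm, 1-2 leaf); loam/sand mix; compound in non-phytotoxic solvent + surfactant. Greenhouse, 10 d. Visual injury vs untreated, 0 = none, 100 = complete control.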

[2] = tested on: blackgrass (Alopecurus myosuroides); assay: as above; conditions: 10 days
Procedure, shortened: as §1

[3] = tested on: corn (Zea mays); assay: as above; conditions: 10 days
Procedure, shortened: as §1

[4] = tested on: green foxtail (Setaria viridis); assay: as above; conditions: 10 days
Procedure, shortened: as §1

[5] = tested on: kochia (Bassia scoparia); assay: as above; conditions: 10 days
Procedure, shortened: as §1

[6] = tested on: oat, wild (wild oat, Avena fatua); assay: as above; conditions: 10 days
Procedure, shortened: as §1

[7] = tested on: palmer (palmer amaranth, palmer pigweed, Amaranthus palmeri); assay: as above; conditions: 10 days
Procedure, shortened: as §1

[8] = tested on: ragweed (common ragweed, Ambrosia artemisiifolia); assay: as above; conditions: 10 days
Procedure, shortened: as §1

[9] = tested on: ryegrass, Italian (italian ryegrass, Lolium multiflorum); assay: as above; conditions: 10 days
Procedure, shortened: as §1

[10] = tested on: soybean (Glycine max); assay: as above; conditions: 10 days
Procedure, shortened: as §1

[11] = tested on: wheat (Triticum aestivum); assay: as above; conditions: 10 days
Procedure, shortened: as §1

[12] = tested on: barnyardgrass (Echinochloa crus-galli); assay: Test A postemergence application, visual injury rating 0-100
Procedure, shortened: as §1

[13] = tested on: blackgrass (Alopecurus myosuroides); assay: as above
Procedure, shortened: as §1

[14] = tested on: corn (Zea mays); assay: as above
Procedure, shortened: as §1

[15] = tested on: galium (catchweed bedstraw, Galium aparine); assay: as above
Procedure, shortened: as §1

[16] = tested on: green foxtail (Setaria viridis); assay: as above
Procedure, shortened: as §1

[17] = tested on: kochia (Bassia scoparia); assay: as above
Procedure, shortened: as §1

[18] = tested on: oat, wild (wild oat, Avena fatua); assay: as above
Procedure, shortened: as §1

[19] = tested on: palmer (palmer amaranth, palmer pigweed, Amaranthus palmeri); assay: as above
Procedure, shortened: as §1

[20] = tested on: ragweed (common ragweed, Ambrosia artemisiifolia); assay: as above
Procedure, shortened: as §1

[21] = tested on: ryegrass, Italian (italian ryegrass, Lolium multiflorum); assay: as above
Procedure, shortened: as §1

[22] = tested on: soybean (Glycine max); assay: as above
Procedure, shortened: as §1

[23] = tested on: wheat (Triticum aestivum); assay: as above
Procedure, shortened: as §1

[24] = tested on: barnyardgrass (Echinochloa crusgalli); assay: Test B flooded paddy test, visual plant response rating 0-100; conditions: 250 g ai/ha, Flood, applied to paddy water, evaluated after 13 days
Procedure, shortened: (§2)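 2-leaf plants; flood 3 cm over soil; compound dosed into paddy water; depth kept constant; greenhouse 13 d; visual scoring vs controls. Dash = no result.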

[25] = tested on: ducksalad (Heteranthera limosa); assay: as above; conditions: 250 g ai/ha, Flood, applied to paddy water, evaluated after 13 days
Procedure, shortened: as §2

[26] = tested on: rice (Oryza sativa); assay: as above; conditions: 250 g ai/ha, Flood, applied to paddy water, evaluated after 13 days
Procedure, shortened: as §2

[27] = tested on: sedge, umbrella (small-flower umbrella sedge, Cyperus difformis); assay: as above; conditions: 250 g ai/ha, Flood, applied to paddy water, evaluated after 13 days
Procedure, shortened: as §2

[28] = 62 g ai/ha, 0 = no effect, 100 = complete control
[29] = 62 g ai/ha, postemergence, 10 days, 0 = no effect, 100 = complete control
[30] = Postemergence, 16 g ai/ha, greenhouse 10 days, 0 no effect, 100 complete control

C=CC1(C(=O)NC2CC=C(C(=O)OC)C2)CN(c2cc(F)cc(F)c2)C(=O)O1 (racemic) [Compound 169]
Barnyardgrass plant response rating ([1]; 16 g ai/ha, 0 to 100 scale): 10
Barnyardgrass plant response rating (0-100) [1, 28]: 90
Blackgrass plant response rating ([2]; 16 g ai/ha, 0 to 100 scale): 0
Blackgrass plant response rating (0-100) [2, 28]: 30
Corn plant response rating ([3]; 16 g ai/ha, 0 to 100 scale): 0
Corn plant response rating (0-100) [3, 28]: 60
Foxtail, Green plant response rating ([4]; 16 g ai/ha, 0 to 100 scale): 0
Foxtail, Green plant response rating (0-100) [4, 28]: 90
Kochia plant response rating ([5]; 16 g ai/ha, 0 to 100 scale): 0
Kochia plant response rating (0-100) [5, 28]: 40
Oat, Wild plant response rating ([6]; 16 g ai/ha, 0 to 100 scale): 20
Oat, Wild plant response rating (0-100) [6, 28]: 50
Pigweed, Palmer plant response rating ([7]; 16 g ai/ha, 0 to 100 scale): 0
Pigweed, Palmer plant response rating (0-100) [7, 28]: 50
Ragweed plant response rating ([8]; 16 g ai/ha, 0 to 100 scale): 0
Ragweed plant response rating (0-100) [8, 28]: 10
Ryegrass, Italian plant response rating ([9]; 16 g ai/ha, 0 to 100 scale): 90
Ryegrass, Italian plant response rating (0-100) [9, 28]: 90
Soybean plant response rating ([10]; 16 g ai/ha, 0 to 100 scale): 10
Soybean plant response rating (0-100) [10, 28]: 20
Wheat plant response rating ([11]; 16 g ai/ha, 0 to 100 scale): 80
Wheat plant response rating (0-100) [11, 28]: 90
Barnyardgrass plant response rating (0-100) [12, 29]: 100
Barnyardgrass plant response rating (0 to 100 scale) [12, 30]: 100
Blackgrass plant response rating (0-100) [13, 29]: 100
Blackgrass plant response rating (0 to 100 scale) [13, 30]: 100
Corn plant response rating (0-100) [14, 29]: 100
Corn plant response rating (0 to 100 scale) [14, 30]: 100
Galium plant response rating (0-100) [15, 29]: 80
Galium plant response rating (0 to 100 scale) [15, 30]: 70
Foxtail, Green plant response rating (0-100) [16, 29]: 90
Foxtail, Green plant response rating (0 to 100 scale) [16, 30]: 90
Kochia plant response rating (0-100) [17, 29]: 80
Kochia plant response rating (0 to 100 scale) [17, 30]: 80
Oat, Wild plant response rating (0-100) [18, 29]: 90
Oat, Wild plant response rating (0 to 100 scale) [18, 30]: 90
Pigweed, Palmer plant response rating (0-100) [19, 29]: 70
Pigweed, Palmer plant response rating (0 to 100 scale) [19, 30]: 20
Ragweed plant response rating (0-100) [20, 29]: 70
Ragweed plant response rating (0 to 100 scale) [20, 30]: 0
Ryegrass, Italian plant response rating (0-100) [21, 29]: 90
Ryegrass, Italian plant response rating (0 to 100 scale) [21, 30]: 80
Soybean plant response rating (0-100) [22, 29]: 70
Soybean plant response rating (0 to 100 scale) [22, 30]: 60
Wheat plant response rating (0-100) [23, 29]: 90
Wheat plant response rating (0 to 100 scale) [23, 30]: 90
Plant response rating, Barnyardgrass (0 to 100 scale, 0 is no effect and 100 is complete control) [24]: 90
Plant response rating, Ducksalad (0 to 100 scale, 0 is no effect and 100 is complete control) [25]: 100
Plant response rating, Rice (0 to 100 scale, 0 is no effect and 100 is complete control) [26]: 95
Plant response rating, Sedge, Umbrella (0 to 100 scale, 0 is no effect and 100 is complete control) [27]: 100
